Laboratory results published in patent US7314857B2, “Synergistic antimicrobial compositions and methods of inhibiting biofilm formation” (Kane Biotech Inc., priority 2003, dated 2008).

Tests used:
Experiment in all cases: Growth on urinary catheter segments coated with TDMAC plus composition (roll plate)
Pseudomonas aeruginosa = type: cell-based
Description: (§1) Clear vinyl catheter segments (3 cm sections of tubing) that had been preheated (incubated in sterile water at 65° C. overnight) were coated in 5% TDMAC in ethanol for an hour at room temperature. The catheter segments were vigorously washed with sterile water and air-dried. The segments were then immersed in ethanol and coating solution (1000 μg OT+100 μg PS+100 μg EDTA/ml of water) for 2 hours at −20° C. In addition, a few catheter segments were immersed in coating solution alone for 2 hours at −20° C. All the segments were air dried and immersed in a tryptic soy broth culture of Pseudomonas aeruginosa, Klebsiella pneumoniae and Staphylococcus epidermidis for 3 hours at 37° C. The catheter segments were washed 3 times in 3 changes of sterile saline and rolled on tryptic soy agar plates. The plates were incubated overnight at 37° C. and the colonies were counted.

Klebsiella pneumoniae = type: cell-based
Description: as §1

Staph. epidermidis = type: cell-based, Staphylococcus epidermidis
Description: as §1

[1] = coated vinyl catheter segments vs uncoated control, coating at −20° C.
[2] = coated vinyl catheter segments, coating 2 hours at −20° C., 3 hours in culture at 37° C., CFU per millimeter of catheter tubing

CCCCCCCCCCCC[N+](C)(CCCCCCCCCCCC)CCCCCCCCCCCC.[Cl-] [TDMAC, Tridodecyl Methyl Ammonium Chloride]
% Inhibition (Pseudomonas aeruginosa; [1]): 12%
Viable Counts (CFU/mM) (Pseudomonas aeruginosa; [2]): 18.8 ± 4.6 CFU/mM
% Inhibition (Klebsiella pneumoniae; [1]): 0%
Viable Counts (CFU/mM) (Klebsiella pneumoniae; [2]): 4.3 ± 1.3 CFU/mM
% Inhibition (Staph. epidermidis; [1]): 0%
Viable Counts (CFU/mM) (Staph. epidermidis; [2]): 20.4 ± 7.7 CFU/mM
